The values that follow come from patent US10301267B2, “Compounds” (AstraZeneca AB, priority 2006, dated 2019).

SMILES strings stand for the structures.

In the experiment the target is T1, transiently expressed FGFR1 IIIc in Cos-1 cells (Homo sapiens, UniProt P11362).
T1 construct: The clone was full-length, wild-type FGFR1 IIIc isoform; host or cells: Cos-1
The experiment is described as follows: Cell FGFR1 - cell based inhibition of transiently expressed FGFR1 IIIc phosphorylation. As to conditions: phospho-FGFR1. An excerpt:
Cell FGFR1—Cell Based Inhibition of Transiently Expressed FGFR1 IIIc Phosphorylation (Measured Using Phospho-Specific Primary and Fluorescent Secondary Antibodies).
This assay is designed to detect inhibitors of transiently expressed FGFR1 phosphorylation by antibody staining of fixed cells detected using ArrayScan technology. (For a description of Array Scan technology see http://www.cellomics.com/content/menu/Arrayscan/)
Cos-1 cells were routinely passaged in DMEM (Gibco BRL, 41966) plus 3% foetal calf serum (FCS), 1% L-glutamine (Gibco BRL, 25030) to a confluence of 80%. To undertake the assay, Cos-1 cells were harvested at 90-95% confluence for cell transfection. […]
The harvested Cos-1 cells are counted using a coulter counter and diluted further with 1% FCS/DMEM to 2.5×10^5 cells/ml. […]
Following incubation at room temperature for 1 hour, the antibody solution was removed and the wells were washed once with 200 ul/well PBS/A. Then 40 μl 1/500 secondary antibody (A111005; goat anti-mouse 594) solution and 1/10000 Hoechst (diluted together in PBS/A with 10% FCS+0.1% Tween 20) were added and the plate incubated in the dark at room temperature for one hour. […] The plates were read on an Arrayscan (Cellomics). […]

T1 sequence (P11362 22-822): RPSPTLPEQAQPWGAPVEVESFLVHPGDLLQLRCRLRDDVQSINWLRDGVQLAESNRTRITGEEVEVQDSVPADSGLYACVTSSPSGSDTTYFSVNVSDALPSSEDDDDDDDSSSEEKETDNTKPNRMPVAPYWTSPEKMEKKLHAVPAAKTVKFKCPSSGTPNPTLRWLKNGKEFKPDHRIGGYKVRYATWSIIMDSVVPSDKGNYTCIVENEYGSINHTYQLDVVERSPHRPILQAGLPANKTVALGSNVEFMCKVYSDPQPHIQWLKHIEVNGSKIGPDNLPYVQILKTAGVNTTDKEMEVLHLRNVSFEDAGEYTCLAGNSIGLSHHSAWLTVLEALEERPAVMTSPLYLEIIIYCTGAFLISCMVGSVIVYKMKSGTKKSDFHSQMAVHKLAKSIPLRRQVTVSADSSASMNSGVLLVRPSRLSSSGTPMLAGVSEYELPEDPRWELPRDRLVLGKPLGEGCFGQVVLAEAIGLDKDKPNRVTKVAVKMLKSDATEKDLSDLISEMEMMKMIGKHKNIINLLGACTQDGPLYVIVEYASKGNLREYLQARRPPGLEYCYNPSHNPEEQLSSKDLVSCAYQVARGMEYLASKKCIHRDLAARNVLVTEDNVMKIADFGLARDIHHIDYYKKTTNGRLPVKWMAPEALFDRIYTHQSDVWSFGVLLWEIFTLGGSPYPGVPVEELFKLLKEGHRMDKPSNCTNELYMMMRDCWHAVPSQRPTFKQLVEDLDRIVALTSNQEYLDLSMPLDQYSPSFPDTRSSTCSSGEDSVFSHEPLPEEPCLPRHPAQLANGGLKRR

Turning to `COc1cc(CCc2cc(NC(=O)c3ccc(CC(C)N)cc3)n[nH]2)cc(OC)c1` (centres unmarked) [Example 49, 4-(2-Aminopropyl)-N-[5-[2-(3,5-dimethoxyphenyl)ethyl]-1H-pyrazol-3-yl]benzamide], the IC50 was 1470 nM.

`COc1cc(CCc2cc(NC(=O)c3ccc(OCCN4CCC(F)(F)CC4)cc3)n[nH]2)cc(OC)c1` [Example 55, 4-[2-(4,4-Difluoro-1-piperidyl)ethoxy]-N-[5-[2-(3,5-dimethoxyphenyl)ethyl]-1H-pyrazol-3-yl]benzamide] showed an IC50 of 460 nM.

In general, IC50 refers to the concentration at which inhibition is half-maximal.
